In article PMC3614987, “Exploring the Chemical Space around 8-Mercaptoguanine as a Route to New Inhibitors of the Folate Biosynthesis Enzyme HPPK” (PLoS ONE, 2013):
“Also recorded” adds a separate entry of the source. Where two headings read alike, the source gives them in different places.

Legend:
SaHPPK [1] = molecular target: T1, SaHPPK (Staphylococcus aureus, UniProt A0A0H3JXR3); parameters: method as in PMID 22276115; conditions: inhibition of the S. aureus enzyme; cited from earlier work
SaHPPK [2] = molecular target: T1, SaHPPK; parameters: method as in PMID 22276115; conditions: SPR and ITC; cited from earlier work
SaHPPK [3] = molecular target: T1, SaHPPK; parameters: method as in Chhabra et al PlosONE 2012; conditions: ITC; ref Chhabra et al PlosONE 2012; cited from earlier work
SaHPPK [4] = molecular target: T1, SaHPPK; assay: SPR binding to SaHPPK
From the text: Initially, the binding of each of the test compounds to SaHPPK was quantitatively assessed using SPR (Fig. S1, S2). […] Moreover, all sensorgrams (Fig. S1 and S2) were of high quality and consistent with near perfect 1∶1 stoichiometric binding of analogues. Table 1 lists the estimated equilibrium dissociation constants (KD). […] This supports the hypothesis that the 8-mercapto group of 8-MG aids binding through the formation of one or more favorable interactions with SaHPPK.
All SPR binding experiments were performed as described previously. The only difference was the use of a sulfhydryl reactive maleimide-activated biotin derivative (Thermo Scientific, 1-biotinamido-4-(4′-[maleimidoethylcyclohexane]-carboxamido)butane. The maleimide-activated biotin was attached to the exposed surface cysteine residue of SaHPPK according to manufacturer’s instructions. The resulting site-specific biotinylated protein was immobilized onto the sensor chip surface using the Biotin capture kit (GE Healthcare). All analogues were serially diluted (either 2- or 3-fold from 126 µM down to 1.5 µM) in SPR binding buffer (50 mM HEPES, 150 mMNaCl, 1 mM TCEP, 0.05% (v/v) Tween-20, 10 mM MgCl2, 5% (v/v) DMSO, pH 8.0) and injected for 30 sec contact time at 60 µL/min and then allowed to dissociate for 60 sec. Binding sensorgrams were processed using the Scrubber (version 2c, BioLogic Software, Campbell, Australia). To determine the binding affinity (equilibrium dissociation constant; KD), responses at equilibrium for each compound were fit to a 1∶1 steady state affinity model available within Scrubber.

SaHPPK [5] = molecular target: T1, SaHPPK; assay: ITC binding to SaHPPK; conditions: 298 K; for ΔG: calculated as -RT.lnKa; for TΔS: calculated using ΔG = ΔH - TΔS; for Kd: read-out: K D ITC
Method: To corroborate the ligand binding affinities determined by SPR, and to determine the enthalpic and entropic contributions to the free energy of binding, ITC experiments were performed for selected compounds (21a and 21c–21e) (Table 2, Fig. S3). […] To investigate the factors contributing to the free energy of binding, we solved the structure of SaHPPK in complex with 21a.
Experiments were performed using an iTC200 instrument (MicroCal) at 298 K, with the ligands titrated into solutions of SaHPPK using 18×2.2 µL injections. Data were fitted using Origin software to yield the thermodynamic parameters, ΔH, KD and N (the binding stoichiometry), assuming a cell volume of 0.2 mL. These were then used to calculate the Gibb’s free energy of binding, ΔG (-RT.lnK a), and entropy of binding, ΔS (using ΔG = ΔH - TΔS). A stock solution of SaHPPK was dialyzed overnight into 50 mM HEPES, 1 mM TCEP, 10 mM MgCl2, pH 8.0 buffer with the addition of 5% DMSO (v/v) prior to running the experiment. For titrations with compounds 21a–e, SaHPPK was typically at 30 µM and the ligand stocks were at 1–1.5 mM dissolved in the above buffer then diluted into more of the same buffer. There was no apparent issue with limited solubility of 21a–c compromising either the stock solutions or the injected concentrations.

SaHPPK [6] = molecular target: T1, SaHPPK; assay: 2D 15N NMR titration of 15N-labelled SaHPPK; assay type: binding
Method: ^15N-labelled protein samples for NMR spectroscopy were prepared as described. 2D soFast ^15N HMQC [43] NMR experiments were recorded on a Varian Inova 600 MHz NMR spectrometer equipped with a cryoprobe and Z axis gradient on samples of ∼100 µM ^15N-labelled SaHPPK dissolved in 50 mM HEPES buffer (pH 8.0, 90% H2O 10% D2O, 1% sorbitol) by titrating in aliquots from a 25 mM stock of 21a dissolved in DMSO-D6.

SaHPPK [7] = molecular target: T1, SaHPPK; conditions: cofactor analogue; no reference given; cited from earlier work
HPPK = molecular target: HPPK; parameters: method as in PMID 10751386, PMID 12093297, PMID 11311059, PMID 10825540, PMID 22169600; conditions: ATP binds prior to the substrate; cited from earlier work
[8] = SPR, in the presence of 10 mM Mg2+/1 mM ATP, 293 K, read-out: K D b
[9] = SPR, in the presence of 10 mM Mg2+, 293 K
[10] = SPR, in the presence of 10 mM Mg2+, 293 K, read-out: K D a

Row | Kd (SaHPPK [4]; [8]) [µM] | melting point | Kd (SaHPPK [4]; [10]) [µM] | N (binding stoichiometry) (SaHPPK [5]) | ΔH (SaHPPK [5]) [kcal/mol] | ΔG (SaHPPK [5]) [kcal/mol] | TΔS (SaHPPK [5]) [kcal/mol] | Kd (SaHPPK [5]) [µM] | SMILES | other results
1 |  |  |  |  |  |  |  |  | Nc1nc2nc(S)[nH]c2c(=O)[nH]1 [8-MG, 8-mercaptoguanine] | IC50 (SaHPPK [1]): ~41 µM; binding relative to the cofactor (ATP / AMPCPP) (SaHPPK [2]): non-competitive; N (binding stoichiometry) (SaHPPK [3]): 1.0±0.06; TΔS (SaHPPK [3]): -12.9 ± 3.5 kcal/mol; ΔG (SaHPPK [3]): -6.7 ± 0.2 kcal/mol; ΔH (SaHPPK [3]): -19.6 ± 3.4 kcal/mol
2 | 108 ± 5 | 252 to 257 °C (dec.) |  |  |  |  |  |  | CNc1nc2nc(N)[nH]c(=O)c2[nH]1 [10a, 8-(Methylamino)guanine] | K D a (SaHPPK [4]; [9]): did not bind; also recorded: No binding
3 | 410 ± 10 |  | 194 ± 5 |  |  |  |  |  | Cn1c(S)nc2c(=O)[nH]c(N)nc21 [15a] | 
4 | 340 ± 10 | 240 to 244 °C (dec.) | 190 ± 10 |  |  |  |  |  | CCn1c(S)nc2c(=O)[nH]c(N)nc21 [15b, 8-Mercapto-9-ethylguanine] | 
5 | 201 ± 6 | > 300 °C (dec.) | 106 ± 2 |  |  |  |  |  | Nc1nc2c(nc(S)n2Cc2ccccc2)c(=O)[nH]1 [15c, 8-Mercapto-9-benzylguanine] | 
6 | 510 ± 20 | 291 to 295 °C (dec.) | 145 ± 4 |  |  |  |  |  | Nc1nc2c(nc(S)n2CCc2ccccc2)c(=O)[nH]1 [15d, 8-Mercapto-9-phenethylguanine] | 
7 | 130 ± 10 | > 300 °C | 12.3 ± 1 | 0.8±0.10 | -10.5 ± 0.6 | -6.4 ± 0.1 | -4.1 ± 0.5 | 16.7 ± 3.5 | Nc1nc2nc(S)n(CCO)c2c(=O)[nH]1 [21a, 7-(2-Hydroxyethyl)-8-mercaptoguanine] | Kd (SaHPPK [4]; approximate value, over 15 heavy atoms, read-out: K D (ligand efficiency comparison)): ~10 µM; binding relative to the cofactor (ATP / AMPCPP) (SaHPPK [6]; NMR (and SPR), saturating AMPCPP 1 mM, 10 mM magnesium): competitive binding with the ATP cofactor; also recorded: competitive with AMPCPP; magnesium dependence of binding (SaHPPK [6]; titration into apo and magnesium-loaded SaHPPK): not magnesium-dependent
8 | 140 ± 4 | 247 to 253 °C (dec.) |  |  |  |  |  |  | Nc1nc2nc(S)n(CC(=O)O)c2c(=O)[nH]1 [21b, 2-(8-Mercaptoguanin-7-yl)acetic acid] | K D a (SaHPPK [4]; [9]): did not bind; also recorded: No binding
9 | 160 ± 20 | 280 to 287 °C (dec.) | 26.4 ± 3 | 1.2±0.02 | -5.8 ± 0.1 | -6.2 ± 0.1 | 0.4 ± 0.2 | 22.4 ± 2 | NCCn1c(S)nc2nc(N)[nH]c(=O)c21 [21c, 7-(2-Aminoethyl)-8-mercaptoguanine] | 
10 | 121 ± 6 | 239 to 243 °C (dec.) | 25.9 ± 2 | 1.3±0.05 | -6.2 ± 0.4 | -6.0 ± 0.1 | -0.2 ± 0.5 | 34.3 ± 6.2 | NCCCn1c(S)nc2nc(N)[nH]c(=O)c21 [21d, 7-(3-Aminopropyl)-8-mercaptoguanine] | 
11 |  | 256 to 262 °C (dec.) | 30 ± 4 | 1.4±0.02 | -4.3 ± 0.1 | -6.0 ± 0.1 | 1.7 ± 0.2 | 35.1 ± 4.8 | N=C(N)NCCn1c(S)nc2nc(N)[nH]c(=O)c21 [21e, 7-(2-Guanidinoethyl)-8-mercaptoguanine] | K D b (SaHPPK [4]; SPR, in the presence of 10 mM Mg2+/1 mM ATP, 293 K): No binding
12 |  |  |  |  |  |  |  |  | Nc1ncnc2c1ncn2[C@@H]1O[C@H](COP(=O)(O)CP(=O)(O)OP(=O)(O)O)[C@@H](O)[C@H]1O [AMPCPP] | Kd (SaHPPK [7]): 3 µM
13 |  |  |  |  |  |  |  |  | Nc1ncnc2c1ncn2[C@@H]1O[C@H](COP(=O)(O)OP(=O)(O)OP(=O)(O)O)[C@@H](O)[C@H]1O [ATP] | Kd (HPPK): 2.6 to 4.5 µM
